Measurements taken from US20070043064A1, “7-Substituted 3-nitro-pyrazo[1,5-a] pyrimidines” (FERRER INTERNACIONAL S.A., priority 2003, published 2007).
Like-named read-outs stand apart in the source and are kept apart here.

Legend:
[1] = biological target: T1, α1-GABAA receptor (Rattus norvegicus, UniProt P62813); experiment: Ligand-binding assay, radiolabeled flumazenil competition, cerebellum membranes
T1 construct: the cerebellum (tissue that mostly contains α1-GABAA receptor); from tissue; host or cells: rat cerebellum membranes
Description: (§1) Ligand-Binding Assays. Determination of the Affinity of Test Compounds for α1- and α2-GABAA Receptors.
(§2) Male Sprague-Dawley rats weighing 200-250 g at the time of experiment were used. After decapitation of the animal, the cerebellum (tissue that mostly contains α1-GABAA receptor) and spinal cord (tissue that mostly contains α2-GABAA receptor) were removed. The membranes were prepared according to the method by J. Lameh et al. (Prog. Neuro-Psychopharmacol. Biol. Psychiatry, 24, 979-991, 2000). Once the tissues weighed, they were suspended in 50 mM Tris HCl buffer, pH 7.7, (1:40 v/v), homogenized and then centrifuged at 20000 g for 10 min at 7° C. The resulting pellet was resuspended under the same conditions and centrifuged again. The final pellet obtained was resuspended on a minimum volume and kept at −80° C. overnight. On the next day, the process was repeated until the final pellet was resuspended at a ratio of 1:10 (v/v).
(§3) The affinity of the compounds was determined by competitive tests using radiolabeled flumazenil as ligand. The methods described by S. Arbilla et al. (Eur. J. Pharmacol., 130, 257-263, 1986); and Y. Wu et al. (Eur. J. Pharmacol., 278, 125-132, 1995) were used. The membranes containing the study receptors, flumazenil (radiolabeling at a final concentration of 1 nM) and ascending concentrations of test compounds (in a total volume of 500 μl in […] [ph 7.4] Tris HCl buffer) were incubated. Simultaneously, the membranes were only incubated with the radiolabeled flumazenil (total binding, 100%) and in the presence of an elevated concentration of unradiolabeled flumazenil (non-specific binding, % estimate of radiolabeled ligand). The reactions started on adding the radiolabeled ligand followed by incubation for 60 minutes at 0° C. At the end of the incubation period, the tubes were filtered using a Brandel Mod. M-48R harvester and then washed three times with cold test buffer. The harvester was fitted with a GF/B filter that retained the membranes containing the receptors and the radiolabeled ligand which had been bound to the receptors. Then the filters were removed and left till dry. Once dried, the filters were cut, placed in vials with scintillation liquid and left under stirring overnight. The next day the filters were counted using a Packard Mod. Tricarb scintillation counter.
(§4) T: total binding, maximum amount bound to the radiolabeled ligand. N: Non-specific binding, amount of radiolabeled ligand bound in a non-specific way irrespective of the receptor used.
(§5) Every concentrations of compound were tested in duplicate and their mean values were used to determine the experimental values of % specific binding versus the concentration of compound. […] Inhibition constants (Ki) were calculated from the IC50 values according to Cheng-Prusoff's formula (Y. Cheng y W. H. Prusoff, Biochem. Pharmacol., 22(23), 3099-3108, 1973).

[2] = biological target: α2-GABAA receptor (Rattus norvegicus, UniProt P18508+P23576); experiment: Ligand-binding assay, radiolabeled flumazenil competition, spinal cord membranes; settings: for inhibition at 10 µM: compound at 10^−5M; for inhibition at 0.1 µM: compound at 10^−7M
Description: as §1, §2, §3, §4, §5

[3] = tested on: male CD1 mice; experiment: Predictive sedation-hypnosis test in mice (motor activity, crossings); assay type: in vivo; settings: single equimolecular intraperitoneal dose, crossings over 30 min after dosing (first 5 min discarded) versus control animals
Description: In Vivo Determination of Predictive Sedative-Hypnotic Action.
The in vivo effects of these compounds were assessed by a predictive sedation-hypnosis test in mice (D. J. Sanger et al., Eur. J. Pharmacol., 313, 35-42, 1996; and G. Griebel et al., Psychopharmacology, 146, 205-213, 1999).
Groups of 5-8 male CD1 mice, weighing 22-26 g at the time of test, were used. The test compounds were administered in single equimolecular intraperitoneal doses, suspended in 0.25% agar with one drop of Tween in a volume of 10 ml/kg. Control animals received the vehicle alone. Using an Actisystem DAS16 (Panlab, S. L., Spain) the crossings (number of counts) were recorded for each mouse at 5-min intervals during a period of 30 minutes after dosing. The inhibition percentage of crossings of treated animals versus control animals (the first 5 min were discarded) was calculated.

[4] = read-out: Affinity for α1-GABAA receptor, Ki

Question: For `CCCN(c1cccc(-c2ccnc3c([N+](=O)[O-])cnn23)c1)S(=O)(=O)c1ccc(OC)cc1`, which melting point is on record?
Answer: 184 to 185 °C

Question: Which melting point does the source give for `O=[N+]([O-])c1cnn2c(-c3ccco3)ccnc12` here?
Answer: 235 to 237 °C

Question: What does the source list for `C#CCN(c1cccc(-c2ccnc3c([N+](=O)[O-])cnn23)c1)S(C)(=O)=O` [Example 28, N-[3-(3-nitro-pyrazolo[1,5-a]pyrimidin-7-yl)-phenyl]-N-(prop-2-inyl)-methanesulfonamide]?
Answer: Ki [1]: 11.7 nM; inhibition at 10 µM [2]: 96.4%; inhibition at 0.1 µM [2]: 29%; % Inhibition Motor Activity [3]: 94.19%

Question: With `CCCN(c1cccc(-c2ccnc3c([N+](=O)[O-])cnn23)c1)S(=O)(=O)c1ccccc1` as the molecule, how does the melting point read?
Answer: 154 to 156 °C

Question: With `CCCN(c1cccc(-c2ccnc3c([N+](=O)[O-])cnn23)c1)S(C)(=O)=O` [Example 25, N-[3-(3-nitro-pyrazolo[1,5-a]pyrimidin-7-yl)-phenyl]-N-(n-propyl)-methanesulfonamide] as the molecule, how does the Ki [1] read?
Answer: 102 nM

Question: What about the “% Inhibition Motor Activity” value [3] of the same molecule?
Answer: 61.06%

Question: What about the melting point of the same molecule?
Answer: 165 to 167 °C

Question: With `CCCN(C(C)=O)c1cccc(-c2ccnc3c([N+](=O)[O-])cnn23)c1` [Example 3, N-[3-(3-nitro-pyrazolo[1,5-a]pyrimidin-7-yl)-phenyl]-N-(n-propyl)-acetamide] as the molecule, how does the Ki [1, 4] read?
Answer: 110 nM

Question: What about the “% Inhibition Motor Activity” value [3] of the same molecule?
Answer: 61.68%

Question: Which melting point does the source give for `O=[N+]([O-])c1cnn2c(-c3cccnc3)ccnc12` here?
Answer: 302 to 303 °C

Question: For `O=[N+]([O-])c1cnn2c(-c3ccc(C(F)(F)F)cc3)ccnc12`, which melting point is on record?
Answer: 191 to 193 °C

Question: With `CCN(C(C)=O)c1cccc(-c2ccnc3c([N+](=O)[O-])cnn23)c1` [Example 1, N-ethyl-N-[3-(3-nitro-pyrazolo[1,5-a]pyrimidin-7-yl)-phenyl]-acetamide] as the molecule, how does the Ki [1] read?
Answer: 88.6 nM

Question: What about the “% Inhibition Motor Activity” value [3] of the same molecule?
Answer: 77.25%

Question: And the melting point?
Answer: 176 to 178 °C

Question: For `CCN(c1cccc(-c2ccnc3c([N+](=O)[O-])cnn23)c1)S(=O)(=O)c1ccc(OC)cc1`, which melting point is on record?
Answer: 209 to 211 °C

Question: What does the source list for `O=[N+]([O-])c1cnn2c(-c3cccc(N4CCCS4(=O)=O)c3)ccnc12` [Example 34, 7-(3-(2-isothiazolidinyl-1,1-dioxide)-phenyl)-3-nitro-pyrazolo[1,5-a]pyrimidine]?
Answer: Ki [1, 4]: 165 nM; inhibition at 10 µM [2]: 86.9%; inhibition at 0.1 µM [2]: 4.3%; % Inhibition Motor Activity [3]: 64.23%

Question: Which melting point does the source give for `O=[N+]([O-])c1cnn2c(-c3ccncc3)ccnc12` here?
Answer: 241 to 244 °C

Question: With `CCN(c1cccc(-c2ccnc3c([N+](=O)[O-])cnn23)c1)S(C)(=O)=O` [Example 15, N-ethyl-N-[3-(3-nitro-pyrazolo[1,5-a]pyrimidin-7-yl)-phenyl]-methanesulfonamide] as the molecule, how does the Ki [1] read?
Answer: 11.1 nM

Question: Which melting point does the source give for `O=[N+]([O-])c1cnn2c(-c3ccccc3C(F)(F)F)ccnc12` here?
Answer: 195 to 197 °C

Question: Which melting point does the source give for `CCCCN(c1cccc(-c2ccnc3c([N+](=O)[O-])cnn23)c1)S(C)(=O)=O` here?
Answer: 153 to 155 °C

Question: Which Ki [1] does the source give for `CN(c1cccc(-c2ccnc3c([N+](=O)[O-])cnn23)c1)S(C)(=O)=O` [Example 18, N-methyl-N-[3-(3-nitro-pyrazolo[1,5-a]pyrimidin-7-yl)-phenyl]-methanesulfonamide] here?
Answer: 28.3 nM

Question: And the “% Inhibition Motor Activity” value [3]?
Answer: 68.55%

Question: What does the source list for `O=[N+]([O-])c1cnn2c(-c3cccc(C(F)(F)F)c3)ccnc12` [Example 8, 3-nitro-7-(3-trifluoromethyl-phenyl)-pyrazolo[1,5-a]pyrimidine]?
Answer: Ki [1, 4]: 623 nM; % Inhibition Motor Activity [3]: 69.08%; melting point: 159 to 161 °C

Question: With `CCN(C(C)=O)c1cccc(-c2ccnc3c(C#N)cnn23)c1` [Zaleplon, zaleplon, reference compound] as the molecule, how does the inhibition at 10 µM [2] read?
Answer: 78.4%

Question: And the “% Inhibition Motor Activity” value [3]?
Answer: 47.17%

Question: What does the source list for `CCS(=O)(=O)N(C)c1cccc(-c2ccnc3c([N+](=O)[O-])cnn23)c1` [Example 32, N-[3-(3-nitro-pyrazolo[1,5-a]pyrimidin-7-yl)-phenyl]-N-methyl-ethanesulfonamide]?
Answer: Ki [1]: 31 nM; inhibition at 10 µM [2]: 89%; inhibition at 0.1 µM [2]: 21%; % Inhibition Motor Activity [3]: 91.57%

Question: With `CCCCN(c1cccc(-c2ccnc3c([N+](=O)[O-])cnn23)c1)S(=O)(=O)c1ccc(OC)cc1` as the molecule, how does the melting point read?
Answer: 189 to 190 °C

Question: For `C#CCN(C(C)=O)c1cccc(-c2ccnc3c([N+](=O)[O-])cnn23)c1` [Example 5, N-[3-(3-nitro-pyrazolo[1,5-a]pyrimidin-7-yl)-phenyl]-N-(2-propynyl)-acetamide], which Ki [1] is on record?
Answer: 38.6 nM

Question: And the “% Inhibition Motor Activity” value [3]?
Answer: 79.06%

Question: For `CC(=O)N(C)c1cccc(-c2ccnc3c([N+](=O)[O-])cnn23)c1` [Example 2, N-methyl-N-[3-(3-nitro-pyrazolo[1,5-a]pyrimidin-7-yl)-phenyl]-acetamide], which Ki [1] is on record?
Answer: 96.8 nM

Question: What about the “% Inhibition Motor Activity” value [3] of the same molecule?
Answer: 77.25%

Question: With `CCCCN(c1cccc(-c2ccnc3c([N+](=O)[O-])cnn23)c1)S(=O)(=O)c1ccccc1` as the molecule, how does the melting point read?
Answer: 159 to 160 °C

Question: Which melting point does the source give for `O=[N+]([O-])c1cnn2c(-c3cccs3)ccnc12` here?
Answer: 235 to 237 °C

Question: Which Ki [1] does the source give for `CC(C)S(=O)(=O)N(C)c1cccc(-c2ccnc3c([N+](=O)[O-])cnn23)c1` [Example 35, N-[3-(3-nitro-pyrazolo[1,5-a]pyrimidin-7-yl)-phenyl]-N-methyl-propane-2-sulfonamide] here?
Answer: 41.2 nM

Question: What about the inhibition at 10 µM [2] of the same molecule?
Answer: 91.5%

Question: And the inhibition at 0.1 µM [2]?
Answer: 18.9%

Question: What about the “% Inhibition Motor Activity” value [3] of the same molecule?
Answer: 91.21%

Question: With `COc1ccc(S(=O)(=O)N(C)c2cccc(-c3ccnc4c([N+](=O)[O-])cnn34)c2)cc1` as the molecule, how does the melting point read?
Answer: 205 to 206 °C

Question: For `O=C1CCCN1c1cccc(-c2ccnc3c([N+](=O)[O-])cnn23)c1`, which melting point is on record?
Answer: 226 to 228 °C

Question: With `C#CCN(c1cccc(-c2ccnc3c([N+](=O)[O-])cnn23)c1)S(=O)(=O)C(C)C` [Example 31, N-[3-(3-nitro-pyrazolo[1,5-a]pyrimidin-7-yl)-phenyl]-N-(n-prop-2-inyl)-propane-2-sulfonamide] as the molecule, how does the Ki [1] read?
Answer: 48.5 nM

Question: What about the inhibition at 10 µM [2] of the same molecule?
Answer: 81.3%

Question: And the inhibition at 0.1 µM [2]?
Answer: 4.2%

Question: And the “% Inhibition Motor Activity” value [3]?
Answer: 94.31%
